“Also recorded” adds a separate entry of the source.
What was measured:
Assay type in all cases: cell-based
LM36R cells = assay: cell proliferation assay, LM36R cells; conditions: 24 h treatment
Experimental: (§1) FIG. 1 illustrates the cell proliferation assay procedure. 5×10^4 cells were seeded in 24-well plates and incubated for 24 h. Stock solutions of PSB, PSMB, and IB were diluted into 5 mL of appropriate media samples for each treatment concentration (1 μM, 2.5 μM, etc). One mL was then added to each of the four wells per treatment concentration. Cells were incubated for 24 h in standard conditions. Cells were then washed with Phosphate Buffered Saline (Sigma Aldrich) and harvested by trypsinization (0.5 mL/well). Cells were incubated for 10 minutes in standard conditions and diluted into a 10 mL isotone solution. The isotone solution was subsequently placed into a cell counter, providing a count that represented 1/20 the number of cells per well.
(§2) A375 cells were grown in high-glucose Dulbecco's modified Eagle's medium (DMEM) (Mediatech) supplemented with fetal bovine serum (FBS) and penicillin/streptomycin (Sigma-Aldrich) in standard conditions (37° C., 5% CO2, humidified atmosphere). LM36 and LM36R cells were grown in cultured in RPMI medium supplemented with 10% FBS, L-glutamine and antibiotics in standard conditions (37° C., 5% CO2, humidified atmosphere).

LM36 cells = assay: cell proliferation assay, LM36 cells; conditions: 24 h treatment
Experimental: as §1, §2

A375 cells = assay: cell proliferation assay, A375 cells; conditions: 24 h treatment; for inhibition of cell proliferation: cell count, FIG. 4A/5A
Experimental: as §1, §2

| Substance | antiproliferative potency compared to IB (LM36R cells) | antiproliferative potency compared to IB (LM36 cells) | antiproliferative potency compared to IB (A375 cells) | inhibition of cell proliferation (A375 cells) | inhibition of cell proliferation (LM36R cells; cell count, FIG. 4B/5B) | inhibition of cell proliferation (LM36 cells; cell count, FIG. 4C/5C) |
| --- | --- | --- | --- | --- | --- | --- |
| N-(4-(bis(4-(diethylamino)phenyl)methylene)-8-(dimethylamino) naphthalen-1(4H)-ylidene)-N-methylmethanaminium [PSB] | Such a trend is not observed | Such a trend is not observed | only exhibits greater antiproliferative effects in A375 cells; also recorded: more potent than IB | inhibits A375 proliferation in a concentration-dependent fashion | – | – |
| N-(4-(bis(4-(dimethylamino)phenyl)methylene)-8-(dimethylamino)naphthalen-1(4H)-ylidene)-N-methylmethanaminium [PSMB] | greater antiproliferative effects than IB; also recorded: more potent inhibition than IB | greater antiproliferative effects than IB; also recorded: more potent inhibition than IB | greater antiproliferative effects than IB; also recorded: more potent inhibition than IB | anti-proliferative effects that operate in a concentration-dependent fashion | anti-proliferative effects that operate in a concentration-dependent fashion | anti-proliferative effects that operate in a concentration-dependent fashion |
